Reference: patent US12037458B2, “Process and premix for incorporating optical brighteners into a polymeric composition” (Elkem Silicones USA Corp., priority 2019, dated 2024)

How the values were obtained:
[1] = Solubility of different optical brighteners in GLYMO, heated mixing (MM2); assay type: physicochemical; conditions: for # of particles observed MM2 / Brightness MM2 / Form a clear solution? Mixing Method 2 / Amount of undissolved OBA MM2: in GLYMO; for # of particles observed MM2 / Brightness MM2 / Amount of undissolved OBA MM2: heated mixing 50° C. (MM2); for Form a clear solution? Mixing Method 2: heated mixing 50° C. under nitrogen (MM2)
[2] = Solubility of Tinopal OB CO in different silanes / titanate (room-temperature mixing, black light inspection); conditions: for Forms a clear solution? / Amount of undissolved Tinopal ® OB CO: 0.072 g Tinopal OB CO in 10 g of compound; for Forms a clear solution?: mixed at room temperature, stored overnight; for Amount of undissolved Tinopal ® OB CO: room temperature; for # of particles observed: OBA particles, naked eye under black light; for Brightness: drop of mixture between glass plates under black light; for Solubility of Tinopal OB CO in the compound (in words): summary of Table 2
[3] = Saturation of optical brightener in GLYMO; assay type: physicochemical
Procedure: To determine the saturation level of optical brightener in GLYMO, increasing amounts of Tinopal® OB CO were mixed with GLYMO (0.25%, 0.5%, 1.0%, 2.0%, 3.0% Tinopal® OB CO), heated at 50° C. for one hour and then cooled while mixing.

[4] = Solubility of different optical brighteners in GLYMO, RT mixing (MM1)
[5] = heated at 50° C. for one hour, cooled while mixing

SMILES | # of particles observed MM2 [1] | Brightness MM2 [1] | Form a clear solution? Mixing Method 2 [1] | Forms a clear solution? [2] | Amount of undissolved Tinopal ® OB CO [2] | # of particles observed [2] | Brightness [2] | Solubility of Tinopal OB CO in the compound (in words) [2] | Amount of undissolved OBA MM2 [1] | Amount of undissolved OBA MM1 ([4]; in GLYMO, RT mixing (MM1)) | Amount of undissolved optical brightener ([4]; in GLYMO, room temperature) | also measured
C(=Cc1ccc(-c2nc3ccccc3o2)cc1)c1ccc(-c2nc3ccccc3o2)cc1 [Benetex ® OB-1 HP, benzoxazole, 2,2′-(1,2-ethenediyldi-4,1-phenylene)bis-] | >300 | high | no |  |  |  |  |  |  |  |  | 
O=S(=O)(O)c1ccccc1C=Cc1ccc(-c2ccc(C=Cc3ccccc3S(=O)(=O)O)cc2)cc1 [Benetex ® OB-M1, benzenesulfonic acid, 2,2′-([1,1′-biphenyl]-4,4′-diyldi-2,1-ethenediyl)bis-] | >100 | low | no |  |  |  |  |  |  |  |  | 
C=C(C)C(=O)OCCC[Si](OC)(OC)OC [MEMO] |  |  |  | Yes | zero | 0 | high | relatively good solubility |  |  |  | 
CC(C)(C)c1ccc2oc(-c3ccc(-c4nc5cc(C(C)(C)C)ccc5o4)s3)nc2c1 [Tinopal ® OB CO] | zero | high | Yes |  |  |  |  |  | Zero | low | low | Effect of heating (MM2) on solubility in GLYMO ([1]; MM2 versus MM1): improved the solubility; Amount of undissolved OBA MM2 ([1]; listed as Tinopal® OB CO): no undissolved particles; Concentration in GLYMO at which homogenously distributed [3, 5]: less than 1.0%; Concentration in GLYMO at which visible particles (agglomerates) were present [3, 5]: ≥ 1.0%; Average particle size of visible particles (agglomerates) ([3]; in GLYMO at concentrations of 1.0% or greater): ≥ 50 μm
CCN(CC)c1nc(Nc2ccc(C=Cc3ccc(Nc4nc(Nc5cc(S(=O)(=O)[O-])ccc5S(=O)(=O)[O-])nc(N(CC)CC)n4)cc3S(=O)(=O)[O-])c(S(=O)(=O)[O-])c2)nc(Nc2cc(S(=O)(=O)[O-])ccc2S(=O)(=O)[O-])n1.[Na+].[Na+].[Na+].[Na+].[Na+].[Na+] [Tinopal ® SFP] | 10-20 | low | No |  |  |  |  |  | Low | high | high | Forms a clear solution? ([4]; 0.072 g optical brightener in 10 g GLYMO, room temperature): No; # of particles observed MM1 ([4]; in GLYMO, RT mixing (MM1)): >300; Brightness MM1 ([4]; in GLYMO, RT mixing (MM1)): low; Form a clear solution? Mixing Method 1 ([4]; in GLYMO, RT mixing (MM1)): no; # of particles observed ([4]; in GLYMO, naked eye under black light): >300; Brightness ([4]; in GLYMO, under black light): low
C=C[Si](OC)(OC)OC [VTMO, vinyltrimethoxysilane] |  |  |  | Yes | low | 0 | high | relatively good solubility |  |  |  | 
